Test results: US20100152434A1, “Protein Kinase-binding Nucleosides and Associated Methods” (priority 2007, published 2010)
Like-named read-outs stand apart in the source and are kept apart here.

Assays:
[1] = test system: 60 different human tumor cell lines (the NCI 60); settings: CCRF-CEM, HL-60(TB), K-562, MOLT-4, RPMI-8226, SR, A549/ATCC, NCI-H460, HCT-116, HCT-15, HT29, SF-268, SF-295, U251, LOX IMVI, SK-MEL-28, SK-MEL-5, IGROV1, OVCAR-3, OVCAR-8, A498, RXF393, MCF7, HS578T
[2] = test system: SK-MEL-28; test: cells; settings: Homo sapiens
[3] = test system: 60 different human tumor cell lines (the NCI 60); test: cells; settings: read-out: LC50 value for each cell line
[4] = test system: K-562; test: cells; settings: Homo sapiens
[5] = test system: PC-3
[6] = test system: HS 578T
[7] = test system: HS 578T; test: cells; settings: Homo sapiens; for CC50: read-out: LC50
[8] = test system: PC-3; test: cells; settings: Homo sapiens
[9] = cells; settings: Homo sapiens
[10] = test system: MOLT-4
[11] = test system: SW-620; test: cells; settings: Homo sapiens
[12] = test system: SR
[13] = test system: SK-MEL-28
[14] = test system: HL-60(TB); test: cells; settings: Homo sapiens
[15] = molecular target: T1, RSK2 (Homo sapiens, UniProt P51812); test: SignalChem radioisotope protein kinase assay; assay type: biochemical; settings: 5 μl of 100 μM stock solution in 25 μl
T1 construct: purchased SignalChem
T1 sequence (P51812 whole entry, species assumed): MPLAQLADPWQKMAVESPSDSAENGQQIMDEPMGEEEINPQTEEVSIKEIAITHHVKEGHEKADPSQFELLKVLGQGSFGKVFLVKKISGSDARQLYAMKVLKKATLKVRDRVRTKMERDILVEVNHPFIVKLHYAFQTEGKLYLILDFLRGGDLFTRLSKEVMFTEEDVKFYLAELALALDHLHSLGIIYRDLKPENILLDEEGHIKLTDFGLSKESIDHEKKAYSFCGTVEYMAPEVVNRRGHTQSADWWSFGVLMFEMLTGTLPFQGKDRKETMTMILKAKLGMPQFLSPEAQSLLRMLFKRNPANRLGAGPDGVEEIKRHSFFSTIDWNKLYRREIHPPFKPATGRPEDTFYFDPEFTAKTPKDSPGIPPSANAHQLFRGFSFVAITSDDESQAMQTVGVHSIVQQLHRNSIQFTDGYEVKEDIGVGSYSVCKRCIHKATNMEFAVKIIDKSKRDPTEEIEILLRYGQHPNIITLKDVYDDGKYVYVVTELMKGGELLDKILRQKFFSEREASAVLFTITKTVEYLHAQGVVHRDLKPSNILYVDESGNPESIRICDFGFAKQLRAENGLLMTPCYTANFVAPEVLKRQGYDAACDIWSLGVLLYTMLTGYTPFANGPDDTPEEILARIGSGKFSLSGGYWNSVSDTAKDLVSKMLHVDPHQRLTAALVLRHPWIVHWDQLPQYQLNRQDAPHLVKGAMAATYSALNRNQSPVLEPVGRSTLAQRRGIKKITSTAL
Source text: (§1) The various protein kinase targets to be employed in the kinase profiling assay were cloned, expressed and purified in-house at SignalChem (Richmond, BC, Canada) using proprietary methods. Quality control testing is routinely performed on each of the SignalChem targets to ensure compliance to acceptable standards. Protein substrates employed in the target profiling process were synthesized internally. ^33P-ATP was purchased from PerkinElmer. All other materials were of standard grade. Compound 10 (FIG. 4) was supplied to SignalChem in a powder form. It was reconstituted in DMSO to form a stock solution which was then diluted with 10% DMSO to form a working stock solution (100 μM) that was then profiled against the various protein kinase targets. The assay conditions for the various protein kinase targets were optimized to yield acceptable enzymatic activity. In addition, the assays were optimized to give high signal-to-noise ratio.
(§2) SignalChem uses a radioisotope assay format for profiling evaluation of protein kinase targets. Protein kinase assays were performed in triplicate at ambient temperature for 20-40 min (depending on the target) in a final volume of 25 μl according to the following assay reaction recipe: • Component 1: 5 μl of diluted active protein kinase target (˜10-40 nM final protein concentration in the assay) • Component 2: 5 μl of stock solution of substrate (1-5 μg of peptide or protein substrate) • Component 3: 5 μl of kinase assay buffer or protein kinase activator in kinase assay buffer • Component 4: 5 μl of Compound 10 (100 μM stock solution) or 10% DMSO • Component 5: 5 μl of 33P-ATP (25 μM stock solution, 0.8 μCi)
(§3) The assay was initiated by the addition of ^33P-ATP and the reaction mixture incubated at ambient temperature for 20-40 minutes, depending on the protein kinase target. After the incubation period, the assay was terminated by spotting 10 μl of the reaction mixture onto a Millipore Multiscreen plate. The Millipore Multiscreen plate was washed 3 times for approximately 15 minutes each in a 1% phosphoric acid solution. The radioactivity on the P81 plate was counted in the presence of scintillation fluid in a Trilux scintillation counter. Blank control, which included all the assay components except the addition of the appropriate substrate (replaced with equal volume of assay dilution buffer), was set up for each protein kinase target. The corrected activity for each protein kinase target was determined by removing the blank control value.

[16] = molecular target: p38β (Homo sapiens, UniProt Q15759); test: SignalChem radioisotope protein kinase assay; assay type: biochemical; settings: 5 μl of 100 μM stock solution in 25 μl
Sequence of p38β (Q15759 whole entry): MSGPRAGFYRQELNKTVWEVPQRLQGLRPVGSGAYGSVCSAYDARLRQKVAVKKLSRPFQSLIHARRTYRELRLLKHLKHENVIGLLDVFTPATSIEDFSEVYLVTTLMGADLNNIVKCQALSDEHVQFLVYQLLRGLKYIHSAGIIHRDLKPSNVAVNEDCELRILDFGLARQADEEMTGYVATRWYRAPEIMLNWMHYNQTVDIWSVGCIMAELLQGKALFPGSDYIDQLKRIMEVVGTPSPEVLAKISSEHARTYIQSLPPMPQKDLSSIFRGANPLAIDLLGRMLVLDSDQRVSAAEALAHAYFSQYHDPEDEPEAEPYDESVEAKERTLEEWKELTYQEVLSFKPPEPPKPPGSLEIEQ
Source text: as §1, §2, §3

[17] = molecular target: T2, PKCα (Homo sapiens, UniProt P17252); test: SignalChem radioisotope protein kinase assay; assay type: biochemical; settings: 5 μl of 100 μM stock solution in 25 μl
T2 construct: purchased SignalChem
Source text: as §1, §2, §3

[18] = molecular target: PIM2 (Homo sapiens, UniProt Q9P1W9); test: SignalChem radioisotope protein kinase assay; assay type: biochemical; settings: 5 μl of 100 μM stock solution in 25 μl
Sequence of PIM2 (Q9P1W9 whole entry, species assumed): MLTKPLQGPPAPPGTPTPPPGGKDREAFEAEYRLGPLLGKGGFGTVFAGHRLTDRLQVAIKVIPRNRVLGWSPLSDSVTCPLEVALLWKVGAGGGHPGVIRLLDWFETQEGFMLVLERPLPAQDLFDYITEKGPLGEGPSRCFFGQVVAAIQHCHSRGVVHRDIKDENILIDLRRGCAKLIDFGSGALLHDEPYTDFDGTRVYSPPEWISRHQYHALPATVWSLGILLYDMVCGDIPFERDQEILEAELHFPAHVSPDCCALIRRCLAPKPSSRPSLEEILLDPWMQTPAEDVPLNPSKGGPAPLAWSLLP
Source text: as §1, §2, §3

[19] = molecular target: c-KIT (Homo sapiens, UniProt P10721); test: SignalChem radioisotope protein kinase assay; assay type: biochemical; settings: 5 μl of 100 μM stock solution in 25 μl
Sequence of c-KIT (P10721 26-976): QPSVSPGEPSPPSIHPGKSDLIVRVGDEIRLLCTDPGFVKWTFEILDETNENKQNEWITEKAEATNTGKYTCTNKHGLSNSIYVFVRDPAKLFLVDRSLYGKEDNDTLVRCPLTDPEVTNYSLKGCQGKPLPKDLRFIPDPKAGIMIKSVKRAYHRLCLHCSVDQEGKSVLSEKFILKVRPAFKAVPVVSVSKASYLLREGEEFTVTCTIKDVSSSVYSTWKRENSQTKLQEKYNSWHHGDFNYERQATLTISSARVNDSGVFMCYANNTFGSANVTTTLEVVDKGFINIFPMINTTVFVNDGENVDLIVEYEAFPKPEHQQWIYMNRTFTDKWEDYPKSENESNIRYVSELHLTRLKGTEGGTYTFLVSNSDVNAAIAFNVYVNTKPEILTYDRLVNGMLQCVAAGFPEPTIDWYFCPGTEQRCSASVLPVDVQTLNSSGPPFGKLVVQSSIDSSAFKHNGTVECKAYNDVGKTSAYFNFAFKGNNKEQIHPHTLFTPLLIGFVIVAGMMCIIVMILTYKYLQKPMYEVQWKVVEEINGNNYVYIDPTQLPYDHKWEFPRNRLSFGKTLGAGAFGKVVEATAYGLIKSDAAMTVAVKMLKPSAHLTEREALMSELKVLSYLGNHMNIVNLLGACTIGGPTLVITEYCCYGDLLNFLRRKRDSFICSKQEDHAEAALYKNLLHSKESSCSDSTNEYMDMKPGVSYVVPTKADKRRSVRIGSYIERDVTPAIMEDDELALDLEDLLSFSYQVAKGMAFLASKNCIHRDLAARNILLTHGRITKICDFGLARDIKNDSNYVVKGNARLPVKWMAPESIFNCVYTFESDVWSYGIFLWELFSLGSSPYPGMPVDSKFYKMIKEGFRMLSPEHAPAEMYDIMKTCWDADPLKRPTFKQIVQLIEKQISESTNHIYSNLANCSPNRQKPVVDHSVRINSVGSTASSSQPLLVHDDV
Source text: as §1, §2, §3

[20] = Log10 Concentration −4.0, Molar
[21] = Log10 Concentration −5.0, Molar
[22] = Log10 Concentration −6.0, Molar
[23] = Log10 Concentration −7.0, Molar
[24] = Log10 Concentration −8.0, Molar

Compound: CCOC(=O)C[C@@H]1C(O[Si](C)(C)C(C)(C)C)[C@H](n2cnc3c(NC(=O)Nc4ccccc4)ncnc32)O[C@@H]1CNC(=O)NC (some centres unmarked) [Compound 10]
- GI50 values (potent anticancer activities) ([1]; HOP-62, NCI-H522, COLO 205, KM12, SW-620, SF-539, SNB-75, M14, SK-MEL-2, UACC-257, 786-0, ACHN, SN12C, PC-3, DU-145, MDA-MB-231/ATCC, MDA-MB-435, T-47D): low micromolar
- GI50 ([2]; SK-MEL-28, 48 h): 6.85 µM
- CC50 ([2]; SK-MEL-28, 48 h, read-out: LC50): 48.7 µM
- CC50 [3]: > 100 µM
- GI50 ([4]; K562, 48 h): 3.59 µM
- CC50 ([4]; K562, 48 h, read-out: LC50): > 100 µM
- TGI ([5]; 48 h): 4.85E−6 Molar
- Percent Growth [5, 20]: −77%
- Percent Growth [5, 21]: −47%
- Percent Growth [5, 22]: 103%
- Percent Growth [5, 23]: 126%
- Percent Growth [5, 24]: 121%
- TGI ([6]; 48 h): 5.36E−5 Molar
- Percent Growth [6, 20]: −7%
- Percent Growth [6, 21]: 18%
- Percent Growth [6, 22]: 90%
- Percent Growth [6, 23]: 95%
- Percent Growth [6, 24]: 94%
- GI50 ([7]; 48 h): 3.6 µM
- CC50 ([7]; 48 h): > 100 µM
- GI50 ([8]; PC-3, 48 h): 2.25 µM
- CC50 ([8]; PC-3, 48 h, read-out: LC50): 12.5 µM
- CC50 ([9]; 48 h, read-out: LC50): 17.9 µM
- TGI ([10]; 48 h): 2.33E−5 Molar
- Percent Growth [10, 20]: −14%
- Percent Growth [10, 21]: 8%
- Percent Growth [10, 22]: 76%
- Percent Growth [10, 23]: 84%
- Percent Growth [10, 24]: 93%
- GI50 ([11]; SW-620, 48 h): 4.8 µM
- CC50 ([11]; SW-620, 48 h, read-out: LC50): > 100 µM
- TGI ([12]; 48 h): 7.07E−6 Molar
- Percent Growth [12, 20]: −34%
- Percent Growth [12, 21]: −15%
- Percent Growth [12, 22]: 85%
- Percent Growth [12, 23]: 70%
- Percent Growth [12, 24]: 82%
- TGI ([13]; 48 h): 2.02E−5 Molar
- Percent Growth [13, 20]: −91%
- Percent Growth [13, 21]: 40%
- Percent Growth [13, 22]: 100%
- Percent Growth [13, 23]: 106%
- Percent Growth [13, 24]: 104%
- GI50 ([14]; HL-60, 48 h): 3.01 µM
- CC50 ([14]; HL-60, 48 h, read-out: LC50): > 100 µM
- % Activity Change [15]: −4%
- % Activity Change [16]: 15%
- % Activity Change [17]: 36%
- % Activity Change [18]: 18%
- % Activity Change [19]: −6%

Compound: CNC(=O)NC[C@H]1O[C@@H](n2cnc3c(NC(=O)Nc4ccccc4)ncnc32)[C@H](O[Si](C)(C)C(C)(C)C)[C@@H]1CC(=O)N(C)OC [Compound 13, 2′-O-(tert-Butyldimethylsilyl)-3′,5′-dideoxy-3′-[(N-methoxy-N-methylcarboxamido)methyl]-5′-[(N-methylcarbamoyl)amino]-N^6-(N-phenylcarbamoyl)adenosine]
- GI50 values (potent anticancer activities) ([1]; HOP-92): low micromolar
- GI50 ([2]; SK-MEL-28): 7.77 µM
- CC50 ([2]; SK-MEL-28, read-out: LC50): > 100 µM
- CC50 [3]: > 100 µM
- GI50 ([4]; K562): 3.12 µM
- CC50 ([4]; K562, read-out: LC50): > 100 µM
- TGI [6]: >1.00E−4 Molar
- Percent Growth ([6]; Log10 Concentration −4.0): 12%
- Percent Growth ([6]; Log10 Concentration −5.0): 40%
- Percent Growth ([6]; Log10 Concentration −6.0): 82%
- Percent Growth ([6]; Log10 Concentration −7.0): 98%
- Percent Growth ([6]; Log10 Concentration −8.0): 98%
- GI50 [7]: 5.79 µM
- CC50 [7]: > 100 µM
- CC50 ([9]; 786-0, read-out: LC50): > 100 µM
- TGI [10]: 9.36E−6 Molar
- Percent Growth ([10]; Log10 Concentration −4.0): −5%
- Percent Growth ([10]; Log10 Concentration −5.0): −2%
- Percent Growth ([10]; Log10 Concentration −6.0): 78%
- Percent Growth ([10]; Log10 Concentration −7.0): 90%
- Percent Growth ([10]; Log10 Concentration −8.0): 96%
- GI50 ([11]; SW-620): > 100 µM
- CC50 ([11]; SW-620, read-out: LC50): > 100 µM
- TGI [12]: 3.46E−6 Molar
- Percent Growth ([12]; Log10 Concentration −4.0): −56%
- Percent Growth ([12]; Log10 Concentration −5.0): −53%
- Percent Growth ([12]; Log10 Concentration −6.0): 62%
- Percent Growth ([12]; Log10 Concentration −7.0): 89%
- Percent Growth ([12]; Log10 Concentration −8.0): 85%
- TGI [13]: >1.00E−4 Molar
- Percent Growth ([13]; Log10 Concentration −4.0): 27%
- Percent Growth ([13]; Log10 Concentration −5.0): 44%
- Percent Growth ([13]; Log10 Concentration −6.0): 101%
- Percent Growth ([13]; Log10 Concentration −7.0): 106%
- Percent Growth ([13]; Log10 Concentration −8.0): 97%
- GI50 ([14]; HL-60): 1.81 µM
- CC50 ([14]; HL-60, read-out: LC50): 16.4 µM

Compound: CNC(=O)NC[C@H]1O[C@@H](n2cnc3c(NC(=O)Nc4ccccc4)ncnc32)C(O[Si](C)(C)C(C)(C)C)[C@H]1O[Si](C)(C)C(C)(C)C (some centres unmarked) [Compound 25, 2′,3′-Bis-O-(tert-butyldimethylsilyl)-5-deoxy-5′-[(N-methylcarbamoyl)amino]-N^6-(N-phenylcarbamoyl)adenosine]
- TGI [5]: >1.00E−4 Molar
- Percent Growth [5, 20]: 4%
- Percent Growth [5, 21]: 6%
- Percent Growth [5, 22]: 83%
- Percent Growth [5, 23]: 91%
- Percent Growth [5, 24]: 93%
- GI50 ([8]; PC-3): 2.69 µM
- IC50 ([8]; PC-3): > 100 µM
